PMC12750277, “Combining Experimental Assays and Molecular Modeling to Evaluate Monosubstituted Cinnamic Acid Derivatives as PDE4B Inhibitors” (ACS Omega, 2025)
Several values for one entry are separate records, joined by “and”; a condition that tells them apart may be missing. Identical values can stand only once. Like-named read-outs stand apart in the source and are kept apart here.

Tests used:
PDE4B = PDE4B (Homo sapiens, UniProt Q07343); experiment: Human PDE4 enzyme inhibition assay ([3H]-cAMP), PDE4B; type: biochemical
Description: (§1) A standard procedure for PDE testing was carried out according to the previously mentioned protocol. , The enzyme was prepared from U937 cells which were derived from human monocytes, and was stored at −20 °C after preparation. Measurement of PDE4 activity was performed using this stored enzyme after it was diluted with distilled water containing bovine serum albumin. The substrate solution was prepared by adding [3H]-cAMP (300,000 dpm (5000 Bq)/ assay) and […] solution to 100 mmol/L Tris-HCl (pH 8.0) containing 5 mmol/L ethylene glycol-bis (β-aminoethyl ether) and O,O′-bis(2-aminoethyl)-ethylene glycol-N,N,N′,N′-tetraacetic acid. The substrate solution was mixed with the enzyme solution containing a test compound dissolved in DMSO, and incubation was done for 30 min at 30 °C.

[1] = test system: TNF-α release in human blood mononuclear cells; experiment: LPS-stimulated TNF-α release in PBMCs (TR-FRET); type: cell-based; conditions: PBMC, LPS stimulation 18 h, read-out: TNFα IC50
Description: The blood was mixed with saline at a ratio of 1:1, and the peripheral blood mononuclear cells (PBMCs) were isolated from buffy coats using Lymphoprep tubes. The PBMCs were suspended in RPMI 1640 with 0.5% human serum albumin, pen/strep, and 2 mM L-glutamine at 5 × 10^5 cells/mL. The cells were preincubated with the test compounds in 96-well plates for 30 min and stimulated for 18 h with […] lipopolysaccharide. TNF-α concentration in the supernatants was measured by homogeneous time-resolved fluorescence resonance (TR-FRET). The assay was quantified by measuring fluorescence at 665 nm (proportional to TNF-α concentration) and 620 nm (control). Results are expressed as IC50 values (μM).
The inhibitory effect of the 19 compounds on the release of HM-TNF-α correlated well with their potency in inhibiting PDE4. […] The well-established correlation between PDE4 inhibition and TNF-α suppression is mechanistically explained by the following pathway: By inhibiting PDE4, these compounds elevate intracellular cAMP levels, which in turn activates protein kinase A (PKA). PKA phosphorylates and inhibits key transcription factors like NF-κB, leading to the downregulation of pro-inflammatory cytokines such as TNF-α. This mechanism provides a solid foundation for understanding the anti-inflammatory effects observed in our study.

PDE4D = PDE4D (Homo sapiens, UniProt Q08499); experiment: Human PDE4 enzyme inhibition assay ([3H]-cAMP), PDE4D; type: biochemical
Description: as §1

LPS induced TNF-α = experiment: LPS induced sepsis for measurement of TNF-α inhibition in mice; type: in vivo; conditions: Swiss Albino mice (n = 6), 10 mg/kg po, serum 90 min after LPS
Description: The sepsis model in mice was induced using lipopolysaccharide (LPS) according to the methods described in the literature. Female Swiss albino mice were selected according to the body weights, which were equivalent within each group. The mice were fasted for 20 h with free access to water and dosed for oral administration (po) with the test compounds suspended in vehicle containing 0.5% Tween 80 in 0.25% sodium salt of carboxymethylcellulose. The control mice received the vehicle alone. After 30 min of oral dosing, the mice were injected intraperitoneally with 500 μg of lipopolysaccharide (Escherichia coli, LPS: B4 from Sigma) in phosphate buffer. Then the mice were bled via retro-orbital sinus puncture after 90 min of LPS administration. Serum samples were collected by centrifuging the blood samples at 4000 rpm for 20 min, which were stored overnight at 4 °C. The serum samples were then immediately checked for TNF-α levels using commercial mouse TNF-α ELISA kit (Amersham Biosciences) and assay was carried out following the manufacturer’s instruction.
In vivo experiments were conducted using an LPS-induced sepsis model to measure TNF-α inhibition in female Swiss Albino mice and to assess neutrophilia inhibition for asthma and COPD in male Sprague–Dawley rats. Details such as the oral dosages and the number of animals used, along with the percentage inhibition of neutrophilia calculated from the DLC, are provided in Table . […] These findings are particularly relevant in the context of COPD pathophysiology, where both TNF-α-driven inflammation and neutrophilic influx are well-established key drivers of tissue damage and disease progression.

[2] = test system: LPS induced neutrophilia (neutrophil influx in BALF); experiment: LPS induced neutrophilia model for asthma and COPD; type: in vivo; conditions: Sprague–Dawley rats (n = 6), 10 mg/kg po, BAL 6 h after LPS
Description: Neutrophilia was induced in Sprague–Dawley rats by lipopolysaccharide (LPS) following the established protocol. Male Sprague–Dawley rats were acclimatized to laboratory conditions for 1 week prior to the experiment. According to the body weight, the rats were distributed to various groups randomly. Except for the normal group, all the rats were exposed to 100 μg/mL lipopolysaccharide (E. coli, LPS: B4 from Sigma) for 40 min. The rats were dosed with the test compound suspended in the vehicle containing 0.25% carboxymethyl cellulose before half an hour of LPS exposure. Bronchoalveolar lavage (BAL) was performed 6 h after LPS exposure, total cell count and differential leukocyte count (DLC) were performed and compared with control and the standard drug.
In vivo experiments were conducted using an LPS-induced sepsis model to measure TNF-α inhibition in female Swiss Albino mice and to assess neutrophilia inhibition for asthma and COPD in male Sprague–Dawley rats.

[3] = test system: tumor necrosis factor-α (TNF-α) in bronchoalveolar lavage fluid; conditions: oral administration, experimental COPD mice; cited from earlier work
[4] = PDE4B, as listed in Table S4 (rounded), read-out: IC50
[5] = enzyme prepared from U937 cells, average of at least three assays, read-out: PDE4B IC50
[6] = log(1/IC50), IC50 in μM, read-out: PDE4B pIC50 (Experimental) (converted)
[7] = enzyme prepared from U937 cells, average of at least three assays, read-out: PDE4D IC50
[8] = PDE4B IC50, enzyme prepared from U937 cells, average of at least three assays
[9] = PDE4B pIC50 (Experimental), log(1/IC50), IC50 in μM

Chain of PDE4B (Q07343 249-736 limits assumed): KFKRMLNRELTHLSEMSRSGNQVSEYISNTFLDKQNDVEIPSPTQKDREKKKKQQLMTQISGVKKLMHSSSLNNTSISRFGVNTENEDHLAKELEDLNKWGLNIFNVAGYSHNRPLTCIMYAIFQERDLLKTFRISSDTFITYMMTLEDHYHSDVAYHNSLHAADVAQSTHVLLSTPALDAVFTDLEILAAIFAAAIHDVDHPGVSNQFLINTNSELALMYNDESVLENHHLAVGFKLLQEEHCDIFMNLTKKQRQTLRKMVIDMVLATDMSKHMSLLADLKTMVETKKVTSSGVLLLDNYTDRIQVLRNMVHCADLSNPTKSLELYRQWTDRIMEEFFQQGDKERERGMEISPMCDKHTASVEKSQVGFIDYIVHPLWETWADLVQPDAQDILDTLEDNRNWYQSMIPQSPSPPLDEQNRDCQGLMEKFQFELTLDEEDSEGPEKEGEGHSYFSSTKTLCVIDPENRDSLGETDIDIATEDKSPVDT
Chain of PDE4D (Q08499 386-715 limits assumed): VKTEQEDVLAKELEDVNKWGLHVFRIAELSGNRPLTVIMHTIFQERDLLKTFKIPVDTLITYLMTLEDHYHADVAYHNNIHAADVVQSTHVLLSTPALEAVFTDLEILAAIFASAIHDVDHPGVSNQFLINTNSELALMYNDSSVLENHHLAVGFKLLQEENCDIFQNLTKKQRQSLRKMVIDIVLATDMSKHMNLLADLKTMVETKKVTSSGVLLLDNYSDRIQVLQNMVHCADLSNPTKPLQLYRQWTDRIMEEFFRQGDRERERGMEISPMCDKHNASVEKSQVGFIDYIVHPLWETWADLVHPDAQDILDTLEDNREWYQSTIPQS

| Structure (SMILES) | IC50 (PDE4B; [4]) | IC50 (PDE4B; [5]) | IC50 (PDE4B; [6]) | IC50 [1] | IC50 (PDE4D; [7]) | further results |
| --- | --- | --- | --- | --- | --- | --- |
| O=C(O)/C=C/c1ccc(C(F)(F)F)cc1 [Compound 19, trans-4-trifluoromethylcinnamic acid] | 97 µM | 97.2 ± 4.3 µM | 97.7 µM | 118 ± 5.1 µM |  |  |
| COc1ccc(/C=C/C(=O)O)cc1 [Compound 7, trans-4-methoxycinnamic acid] |  | 8.2 ± 1.2 µM | 8.13 µM | 30.8 ± 1.6 µM | 45.6 ± 1.8 µM | selectivity for PDE4B over PDE4D (PDE4B; compared with rolipram): higher selectivity ratios for PDE4B over PDE4D than rolipram; TNF-α inhibition (%) (LPS induced TNF-α): 29.6% and 29.6 ± 0.36%; LPS induced neutrophilia (% inhibition) [2]: 24.2% and 24.2 ± 0.52% |
| O=C(O)/C=C/c1ccccc1O [Compound 2, ortho-coumaric acid] |  | 41.4 ± 1.3 µM | 41.7 µM | 40.4 ± 0.8 µM | 39.6 ± 1.7 µM |  |
| COc1ccccc1/C=C/C(=O)O [Compound 5, trans-2-methoxycinnamic acid] |  | 51.1 ± 1.9 µM | 51.3 µM | 64.2 ± 3.1 µM | 91.4 ± 2.9 µM |  |
| O=C(O)C=Cc1cc(O)c(O)c(O)c1 [THCA, 3,4,5-Trihydroxycinnamic acid] |  |  |  |  |  | TNF-α in bronchoalveolar lavage fluid [3]: significantly inhibited |
| Cc1cccc(/C=C/C(=O)O)c1 [Compound 9, trans-3-methylcinnamic acid] | 102 µM | 102 ± 4.1 µM | 102 µM | 121 ± 5.7 µM |  |  |
| Cc1ccccc1/C=C/C(=O)O [Compound 8, trans-2-methylcinnamic acid] | 136 µM | 137 ± 5.8 µM | 135 µM | 169 ± 5.1 µM |  |  |
| O=C(O)/C=C/c1ccc(O)cc1 [Compound 4, p-coumaric acid] |  |  |  | 21.5 ± 1.3 µM |  | IC50 (PDE4B; [8]): 2.2 ± 0.8 µM; IC50 (PDE4B; [9]): 2.19 µM; IC50 (PDE4D): 2.3 ± 0.7 µM; TNF-α inhibition (%) (LPS induced TNF-α): 41.1% and 41.1 ± 0.65%; LPS induced neutrophilia (% inhibition) [2]: 32.5% and 32.5 ± 0.33% |
| COc1ccc(C2CNC(=O)C2)cc1OC1CCCC1 (stereo not shown) [Rolipram, reference compound] |  |  |  | 18.5 ± 1 µM |  | TNF-α inhibition (%) (LPS induced TNF-α): 41.7% and 41.7 ± 0.78%; LPS induced neutrophilia (% inhibition) [2]: 32.8% and 32.8 ± 0.40% |
| O=C(O)/C=C/c1cccc(Cl)c1 [Compound 12, trans-3-chlorocinnamic acid] | 63 µM | 63.2 ± 3.4 µM | 63.1 µM | 119 ± 4.8 µM | 62.7 ± 2.8 µM |  |
| Cc1ccc(/C=C/C(=O)O)cc1 [Compound 10, trans-4-methylcinnamic acid] | 85 µM | 85.3 ± 3.8 µM | 85.1 µM | 99.2 ± 4.1 µM |  |  |
| O=C(O)/C=C/c1ccccc1Cl [Compound 11, trans-2-chlorocinnamic acid] | 82 µM | 82.1 ± 3.9 µM | 81.3 µM | 128 ± 5.8 µM | 89.6 ± 3.7 µM |  |
| O=C(O)/C=C/c1ccc(Cl)cc1 [Compound 13, trans-4-chlorocinnamic acid] | 44 µM | 44.5 ± 2.2 µM | 43.7 µM | 89.7 ± 3.2 µM | 57.3 ± 2.4 µM |  |
| O=C(O)/C=C/c1ccccc1 [Compound 1, trans-cinnamic acid] |  |  |  | 198 ± 8.2 µM |  | IC50 (PDE4B; [8]): 90.3 ± 3.8 µM; IC50 (PDE4B; [9]): 91.2 µM |
| O=C(O)/C=C/c1ccc(Br)cc1 [Compound 17, trans-4-bromocinnamic acid] | 87 µM | 87.2 ± 3.5 µM | 87.1 µM | 125 ± 5.5 µM |  |  |
| O=C(O)/C=C/c1ccc([N+](=O)[O-])cc1 [Compound 14, trans-4-nitrocinnamic acid] | 111 µM | 112 ± 6.4 µM | 112 µM | 96.5 ± 3 µM |  |  |
| CN(C)c1ccc(/C=C/C(=O)O)cc1 [Compound 18, trans-4-dimethylaminocinnamic acid] | 33 µM |  | 33.1 µM | 65.2 ± 3.1 µM | 19.6 ± 1.1 µM |  |
| COc1cccc(/C=C/C(=O)O)c1 [Compound 6, trans-3-methoxycinnamic acid] |  | 32.8 ± 1.1 µM | 33.1 µM | 58.3 ± 2 µM | 65.6 ± 1.8 µM |  |
| O=C(O)/C=C/c1cccc(O)c1 [Compound 3, meta-coumaric acid] |  | 28.4 ± 1.4 µM | 28.2 µM | 37.8 ± 1.9 µM | 32.7 ± 2.1 µM |  |
| O=C(O)/C=C/c1ccc(F)cc1 [Compound 16, trans-4-fluorocinnamic acid] | 33 µM | 33.4 ± 1.5 µM | 33.1 µM | 65.2 ± 3.1 µM | 36.6 ± 2.1 µM |  |
| O=Cc1ccc(/C=C/C(=O)O)cc1 [Compound 15, trans-4-formylcinnamic acid] | 101 µM | 101 ± 5.4 µM | 100 µM | 98.5 ± 2.8 µM |  |  |
